Measurements reported in PubChem BioAssay (NCI).
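All cell lines were grown in 96-well plates and treated with compound for 48 hours. At the GI50, growth is halved. At the TGI there is no net growth.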

What was measured:
Assay in all cases: growth of human tumour cells (NCI), 48 h
[1] = system: UACC-62 melanoma
[2] = system: RPMI-8226 leukemia
[3] = system: HT29 colon
[4] = system: NCI-H460 lung
[5] = system: SF-268 CNS
[6] = system: CAKI-1 renal
[7] = system: SNB-75 CNS
[8] = system: SK-MEL-5 melanoma
[9] = system: OVCAR-8 ovarian
[10] = system: A549 NSCLC
[11] = system: OVCAR-3 ovarian
[12] = system: OVCAR-5 ovarian
[13] = system: PC-3 prostate
[14] = system: OVCAR-4 ovarian
[15] = system: CCRF-CEM leukemia
[16] = system: MDA-MB-231 breast
[17] = system: EKVX NSCLC
[18] = system: UACC-257 melanoma
[19] = system: RXF 393 renal
[20] = system: MOLT-4 leukemia
[21] = system: MDA-MB-435
[22] = system: NCI/ADR-RES ovarian
[23] = system: LOX IMVI melanoma
[24] = system: MALME-3M melanoma
[25] = system: U251 CNS
[26] = system: MCF7 breast
[27] = system: HCC-2998 colon
[28] = system: NCI-H23 lung
[29] = system: M14 melanoma
[30] = system: SN12C renal
[31] = system: DU-145 prostate
[32] = system: HOP-92 NSCLC
[33] = system: KM12 colon
[34] = system: SK-MEL-2 melanoma
[35] = system: SF-539 CNS
[36] = system: HCT-116 colon
[37] = system: HS 578T breast
[38] = system: IGROV1 ovarian
[39] = system: K-562 leukemia
[40] = system: NCI-H522 lung
[41] = system: HL-60(TB) leukemia
[42] = system: ACHN renal
[43] = system: SK-MEL-28 melanoma
[44] = system: SNB-19 CNS
[45] = system: SF-295 CNS
[46] = system: SW-620 colon
[47] = system: UO-31 renal
[48] = system: HCT-15 colon
[49] = system: T-47D breast
[50] = system: COLO 205 colon
[51] = system: TK-10 renal
[52] = system: SK-OV-3 ovarian
[53] = system: A498 renal
[54] = system: HOP-62 NSCLC
[55] = system: 786-0 renal
[56] = system: SR leukemia
[57] = system: NCI-H226 lung
[58] = system: BT-549 breast

## O=C(Nc1ccc(-n2ccc3c(NC(=O)c4ccccc4)nccc32)cc1)c1cccc(C(F)(F)F)c1
[1]
  GI50: 0.714 µM
  TGI: 8.48 µM
[2]
  GI50: 0.614 µM
  TGI: 14.2 µM
[3]
  GI50: 0.243 µM
  TGI: 4.02 µM
[4]
  GI50: 0.119 µM
  TGI: 5.38 µM
[5]
  GI50: 0.473 µM
  TGI: 25.6 µM
[6]
  GI50: 0.326 µM
  TGI: 7.92 µM
[7]
  GI50: 0.707 µM
  TGI: 6.59 µM
[8]
  GI50: 0.194 µM
  TGI: 6.65 µM
[9]
  GI50: 0.393 µM
  TGI: 10.3 µM
[10]
  GI50: 0.418 µM
  TGI: 9.4 µM
[11]
  GI50: 1 µM
  TGI: 7.89 µM
[12]
  GI50: 3.07 µM
  TGI: > 50 µM
[13]
  GI50: 1.29 µM
  TGI: 27.3 µM
[14]
  GI50: 2.7 µM
  TGI: 22.6 µM
[15]
  GI50: 0.313 µM
  TGI: 13.2 µM
[16]
  GI50: 2.88 µM
  TGI: 14.7 µM
[17]
  GI50: 4.33 µM
  TGI: > 50 µM
[18]
  GI50: 2.09 µM
  TGI: > 21.6 µM
[19]
  GI50: 1.02 µM
  TGI: 5.97 µM
[20]
  GI50: 0.29 µM
  TGI: > 25.9 µM
[21]
  GI50: 0.657 µM
  TGI: 4.98 µM
[22]
  GI50: 0.724 µM
  TGI: 11.9 µM
[23]
  GI50: 0.182 µM
  TGI: 5.4 µM
[24]
  GI50: 2.04 µM
  TGI: 12.2 µM
[25]
  GI50: 0.158 µM
  TGI: 7.09 µM
[26]
  GI50: 0.413 µM
  TGI: 7.94 µM
[27]
  GI50: 1.71 µM
  TGI: 11.6 µM
[28]
  GI50: 3.88 µM
  TGI: > 36.1 µM
[29]
  GI50: 1.38 µM
  TGI: 9.06 µM
[30]
  GI50: 1.67 µM
  TGI: > 35.6 µM
[31]
  GI50: 1.64 µM
  TGI: 9.71 µM
[32]
  GI50: 1.96 µM
  TGI: > 50 µM
[33]
  GI50: 0.4 µM
  TGI: 7.64 µM
[34]
  GI50: 1.29 µM
  TGI: 7.27 µM
[35]
  GI50: 0.47 µM
  TGI: 11.5 µM
[36]
  GI50: 0.177 µM
  TGI: 6.92 µM
[37]
  GI50: 1.42 µM
  TGI: 13.1 µM
[38]
  GI50: 1.4 µM
  TGI: > 50 µM
[39]
  GI50: 0.231 µM
  TGI: > 23.1 µM
[40]
  GI50: 1.07 µM
  TGI: > 13.5 µM
[41]
  GI50: 0.685 µM
  TGI: 15.3 µM
[42]
  GI50: 0.624 µM
  TGI: 14.7 µM
[43]
  GI50: 2.4 µM
  TGI: 11 µM
[44]
  GI50: 0.729 µM
  TGI: 20.1 µM
[45]
  GI50: 0.392 µM
  TGI: 7.99 µM
[46]
  GI50: 0.381 µM
  TGI: 7.32 µM
[47]
  GI50: 1.83 µM
  TGI: 15.9 µM
[48]
  GI50: 0.0428 µM
  TGI: 6.99 µM
[49]
  GI50: 4.66 µM
  TGI: 30.9 µM
[50]
  GI50: 1.42 µM
  TGI: 10.3 µM
[51]
  GI50: 1.53 µM
  TGI: 12.6 µM
[52]
  GI50: 0.879 µM
  TGI: 15.4 µM
[53]
  GI50: 0.905 µM
  TGI: 15.6 µM
[54]
  GI50: 2.02 µM
  TGI: 14.5 µM
[55]
  GI50: 0.728 µM
  TGI: 9.14 µM
[56]
  GI50: 0.0753 µM
  TGI: > 18 µM
[57]
  GI50: 2.56 µM
  TGI: > 50 µM
[58]
  GI50: 2.03 µM
  TGI: 22.3 µM
